Experimental data as given in patent publication US20220235068A1, “TETRACYCLIC COMPOUNDS AS CDC7 INHIBITORS” (Chia Tai Tianqing Pharmaceutical Group Co., Ltd., priority 2019, published 2022).
Counter-ions that a name gives are not always drawn. Like-named read-outs stand apart in the source and are kept apart here. Each block holds one molecule with its values, some of them ahead of it.

Key:
[1] = molecular target: T1, Cdc7/DBF4 (Homo sapiens, UniProt O00311); test: Inhibitory effect against activity of Cdc7/DBF4 (ADP-Glo kinase detection kit); assay type: biochemical; conditions: 10 μM ATP, 25° C., 60 min
T1 construct: purchased Promega
Protocol: Cdc7/DBF4 kinase detection kit purchased from Promega; and
(§1) Nivo multi-marker analyzer (PerkinElmer).
An enzyme, a substrate, adenosine triphosphate and an inhibitor were diluted with the kinase buffer in the kit. A test compound was serially 5-fold diluted to an 8th concentration, i.e., from 10 μM to 0.13 nM, with the DMSO concentration being 5%, and the duplicate well experiment was set up. To a microplate were added 1 μL of inhibitors of various concentration gradients, 2 μL of CDCl7/DBF4 kinase (6.25 ng), 2 μL of a mixture of substrate and ATP (10 μM adenosine triphosphate, 0.2 μg/μL substrate), and the final concentration gradient of the compound was diluted from 2 μM to 0.025 nM. The reaction system was left reacting at 25° C. for 60 min. After the reaction was completed, 5 μL of ADP-Glo reagent was added to each well, and the reaction was continued at 25° C. for 40 min. After the reaction was completed, 10 μL of the kinase detection reagent was added to each well. After 30 min of reaction at 25° C., the chemiluminescence was read using the multi-marker analyzer with an integration time of 0.5 s.
The original data were converted to inhibition using the equation (Sample−Min)/(Max−Min)×100%, and the IC50 value was then curve fitted using four parameters (obtained from the “log(inhibitor) vs. response-Variableslope” model in GraphPadPrism). Table 1 provides the enzymatic inhibitory activity of the compounds disclosed herein against Cdc7/DBF4.

[2] = test system: human colorectal cancer cell SW620; test: In vivo pharmacodynamic study in subcutaneous xenograft tumor nude mouse model of SW620; conditions: BID, p.o.
Protocol: Human colorectal cancer cell SW620 cells of the 7th passage were cultured in an L-15 medium containing 10% fetal bovine serum, 100 U/mL penicillin and 100 μg/mL streptomycin through in vitro monolayer culture in an incubator at 37° C./[…] for 4 passages with conventional medium replacement. At a cell saturation of 80-90%, the cells were digested with pancreatin-EDTA, counted and resuspended in PBS at a density of 5×10^6 cells/100 μL.
Cell inoculation: Each mouse was inoculated on the right cervical dorsum with 0.1 mL of the cell suspension of 5×10^6 SW620 cells in PBS. At an average tumor volume up to about 134 mm^3, the mice were randomly grouped and administrated.
Tumor diameters were measured twice weekly using a vernier caliper. The tumor volume was calculated using the following formula: V=0.5 a×b^2, where a and b represent the long diameter and short diameter of the tumor, respectively.
The anti-tumor therapeutic effect of the compound was evaluated by TGI (%) or relative tumor proliferation rate T/C (%). Relative tumor proliferation rate T/C (%)=TRTV/CRTV×100% (TRTV: RTV of treatment group; CRTV: RTV of negative control group). Relative tumor volumes (RTVs) were calculated from the tumor measurement results using the following formula: RTV=Vt/VO, where VO is the average tumor volume measured at the time of grouping (i.e., DO), Vt is the average tumor volume measured at a certain measurement, and TRTV and CRTV are taken from the data measured on the same day.
TGI (%), reflects the tumor growth inhibition rate. TGI (%)=[(1−(average tumor volume at the end of administration in a treatment group−average tumor volume at the start of administration of the treatment group))/(average tumor volume at the end of treatment of the vehicle control group−average tumor volume at the start of treatment of the vehicle control group)]×100%.
After day 22 of the grouping, mice were euthanized, plasma and tumors were sampled and tumors were weighed and photographed.

[3] = Single-dose pharmacokinetic study in mice; assay type: in vivo; conditions: male CD-1 mice
Protocol: To evaluate the pharmacokinetic behavior by using male CD-1 mice as test animals and determining the drug concentrations of the compounds in the plasma after single-dose administration. Healthy adult male CD-1 mice were selected for intragastric administration. A compound was mixed with an appropriate amount of 5% DMSO/95% (10% hydroxypropyl-β-cyclodextrin), vortexed and sonicated to prepare a 1 mg/mL clear solution for later use. After the mice were administered intravenously at 2 mg/kg and orally at 10 mg/kg, whole blood was collected at certain time points, and plasma was separated. After pretreatment of the samples, the drug concentration was measured by LC-MS/MS, and pharmacokinetic parameters were calculated using Phoenix WinNonlin software.

[4] = test system: Colo205 cells; test: Inhibitory effect against Colo205 cell proliferation (CellTiter-Glo); assay type: cell-based; conditions: incubation 3 days
Protocol: 1640 medium; fetal bovine serum; penicillin/streptomycin antibiotics purchased from Wisent;
CellTiter-Glo (chemiluminescence detection reagent for cell viability) reagent purchased from Promega;
COL0205 cell line purchased from Wuhan Procell Life Science&Technology Co., Ltd; and
as §1
COL0205 cells were plated on to white 96-well plates by adding 80 μL of cell suspension (containing 3000 COL0205 cells) to each well. The cell plate was incubated in a CO2 incubator overnight.
A test compound was serially 3-fold diluted to an 8th concentration, i.e., from 2 mM to 920 nM, and the duplicate well experiment was set up. 78 μL of medium was added to an intermediate plate, 2 μL of the serially diluted compound was transferred to corresponding wells of the intermediate plate, and after mixing, the mixture was transferred to the cell plate at 20 μL per well. The concentration of the compound transferred to the cell plate ranged from 10 μM to 4.57 nM. The cell plate was incubated in a CO2 incubator for 3 days. Another cell plate was provided for reading signal values on the day of compound addition and these values were used as […] in data analysis. The chemiluminescence detection reagent for cell viability was added to this cell plate at 25 μL per well and the luminescence signals were stabilized by incubation at room temperature for 10 min. Readings were taken using the multi-marker analyzer. The chemiluminescence detection reagent for cell viability was added to the cell plate at 25 μL per well and the luminescence signals were stabilized by incubation at room temperature for 10 min. Readings were taken using the multi-marker analyzer.
The original data were converted to inhibition using the equation (Sample−Min)/(Max−Min)×100%, and the IC50 value was then curve fitted using four parameters (obtained from the “log(inhibitor) vs. response-Variableslope” model in GraphPadPrism). Table 2 provides the inhibitory activity of the compounds disclosed herein against COL0205 cell proliferation.

[5] = mouse, plasma, IV: 2 mg/kg, PO: 10 mg/kg

T1 sequence (O00311 whole entry): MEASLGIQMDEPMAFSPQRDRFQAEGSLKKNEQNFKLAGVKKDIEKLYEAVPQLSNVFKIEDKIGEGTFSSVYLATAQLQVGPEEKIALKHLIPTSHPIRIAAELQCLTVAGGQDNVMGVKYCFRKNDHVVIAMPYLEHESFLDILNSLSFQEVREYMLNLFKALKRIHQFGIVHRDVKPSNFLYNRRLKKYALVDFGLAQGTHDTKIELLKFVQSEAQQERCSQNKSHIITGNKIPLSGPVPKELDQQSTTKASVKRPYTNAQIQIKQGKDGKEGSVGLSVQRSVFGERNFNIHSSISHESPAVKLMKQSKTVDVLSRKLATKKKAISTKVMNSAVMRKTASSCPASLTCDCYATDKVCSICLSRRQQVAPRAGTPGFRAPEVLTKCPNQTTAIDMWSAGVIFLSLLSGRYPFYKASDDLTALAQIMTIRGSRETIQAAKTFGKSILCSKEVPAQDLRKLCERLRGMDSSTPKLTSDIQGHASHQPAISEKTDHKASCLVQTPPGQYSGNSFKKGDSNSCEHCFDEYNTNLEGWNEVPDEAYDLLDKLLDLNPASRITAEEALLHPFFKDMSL
T1 sequence (Q9UBU7 whole entry partner): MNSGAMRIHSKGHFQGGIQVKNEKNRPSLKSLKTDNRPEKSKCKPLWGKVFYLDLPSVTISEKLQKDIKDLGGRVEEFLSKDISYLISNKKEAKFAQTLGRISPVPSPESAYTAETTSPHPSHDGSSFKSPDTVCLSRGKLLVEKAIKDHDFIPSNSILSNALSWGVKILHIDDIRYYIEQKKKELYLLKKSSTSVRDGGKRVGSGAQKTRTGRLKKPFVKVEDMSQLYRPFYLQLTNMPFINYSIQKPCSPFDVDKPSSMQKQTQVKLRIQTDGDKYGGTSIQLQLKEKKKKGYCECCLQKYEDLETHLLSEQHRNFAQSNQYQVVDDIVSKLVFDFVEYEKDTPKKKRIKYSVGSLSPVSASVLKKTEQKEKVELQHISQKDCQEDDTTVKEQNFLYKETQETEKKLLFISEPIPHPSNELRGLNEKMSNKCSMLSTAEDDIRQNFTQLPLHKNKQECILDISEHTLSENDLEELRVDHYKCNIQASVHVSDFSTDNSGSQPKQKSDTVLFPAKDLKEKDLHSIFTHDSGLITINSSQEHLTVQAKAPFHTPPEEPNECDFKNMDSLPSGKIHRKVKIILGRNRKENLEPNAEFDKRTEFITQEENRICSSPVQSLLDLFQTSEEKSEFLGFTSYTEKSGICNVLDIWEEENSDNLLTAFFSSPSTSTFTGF

SMILES: O=c1[nH]c([C@H]2CC3CCN2CC3)nc2c3c(sc12)-c1c[nH]nc1CCC3 (single isomer, unassigned) [Compound 1-1 hydrochloride]
IC50 [1]: 3.02 nM
Tumor volume (Day 1) ([2]; 2.5 mg/kg): 134 ± 13 mm^3
RTV (Day 21) ([2]; 2.5 mg/kg): 1.88
T/C (%) (Day 21) ([2]; 2.5 mg/kg): 22%
TGI (%) (Day 21) ([2]; 2.5 mg/kg): 89%
Tumor volume (Day 21) ([2]; 2.5 mg/kg): 237 ± 27 mm^3
Tumor volume (Day 1) ([2]; 5 mg/kg): 134 ± 15 mm^3
RTV (Day 21) ([2]; 5 mg/kg): 0.93
T/C (%) (Day 21) ([2]; 5 mg/kg): 11%
TGI (%) (Day 21) ([2]; 5 mg/kg): 100%
Tumor volume (Day 21) ([2]; 5 mg/kg): 133 ± 32 mm^3
Tumor volume (Day 1) ([2]; 7.5 mg/kg): 134 ± 14 mm^3
RTV (Day 21) ([2]; 7.5 mg/kg): 0.31
T/C (%) (Day 21) ([2]; 7.5 mg/kg): 4%
TGI (%) (Day 21) ([2]; 7.5 mg/kg): 108%
Tumor volume (Day 21) ([2]; 7.5 mg/kg): 53 ± 16 mm^3
Maximum concentration ([3]; IV: 2 mg/kg, PO: 10 mg/kg): 2230 nM
AUC(0-t) ([3]; mouse, plasma, IV 2 mg/kg, read-out: AUC0-last (intravenous injection)): 2.45 µM·h
bioavailability [3, 5]: 71.4%
clearance [3, 5]: 35.2 mL/min/kg
half-life [3, 5]: 4.03 h
Vd ([3]; mouse, plasma, IV: 2 mg/kg, PO: 10 mg/kg, read-out: Apparent volume of distribution): 4.13 L/kg
AUC(0-t) ([3]; mouse, plasma, PO 10 mg/kg, read-out: AUC0-last (oral)): 9.08 µM·h
IC50 [4]: 13.8 nM

IC50 [1]: 1.7 nM
SMILES: CC(C)N1CCCC1c1nc2c3c(sc2c(=O)[nH]1)-c1c[nH]nc1CCC3 (single isomer, unassigned) [Compound 6-1 hydrochloride]

IC50 [1]: 2.04 nM
SMILES: CN1CCCC1(C)c1nc2c3c(sc2c(=O)[nH]1)-c1c[nH]nc1CCC3 (single isomer, unassigned) [Compound 5-1 hydrochloride]

IC50 [1]: 1.21 nM
IC50 ([4]; Homo sapiens, COLO 205, 72 h): 50.1 nM
SMILES: O=c1[nH]c(C2C3CCN2CC3)nc2c3c(sc12)-c1c[nH]nc1CCC3 (single isomer, unassigned) [Compound 14-1 hydrochloride]

IC50 [1]: 3.07 nM
SMILES: CN1CCCCC1c1nc2c3c(sc2c(=O)[nH]1)-c1c[nH]nc1CCC3 (single isomer, unassigned) [Compound 7-1 formate]

IC50 [1]: 4.27 nM
SMILES: O=c1[nH]c(C2CCCNC2)nc2c3c(sc12)-c1c[nH]nc1CCC3 (single isomer, unassigned) [Compound 8-1 hydrochloride]

IC50 [1]: 1.43 nM
SMILES: O=c1[nH]c(C2C3CCN2CC3)nc2c3c(sc12)-c1c[nH]nc1CCC3 (single isomer, unassigned) [Compound 14-2 hydrochloride]

IC50 [1]: 4.56 nM
SMILES: CC1(c2nc3c4c(sc3c(=O)[nH]2)-c2c[nH]nc2CCC4)CCCN1 (single isomer, unassigned) [Compound 4-1 hydrochloride]

IC50 [1]: 0.99 nM
SMILES: CC(C)N1CCCC1c1nc2c3c(sc2c(=O)[nH]1)-c1c[nH]nc1CCC3 (single isomer, unassigned) [Compound 6-2 hydrochloride]

IC50 [1]: 0.42 nM
SMILES: CN1CCCC1c1nc2c3c(sc2c(=O)[nH]1)-c1c[nH]nc1CCC3 (single isomer, unassigned) [Compound 3-2 hydrochloride]

IC50 [1]: 1.69 nM
SMILES: O=c1[nH]c(C2CCNCC2)nc2c3c(sc12)-c1c[nH]nc1CCC3 [Compound 10 hydrochloride]

IC50 [1]: 1.38 nM
SMILES: CC1(c2nc3c4c(sc3c(=O)[nH]2)-c2c[nH]nc2CCC4)CCNCC1 [Compound 12 hydrochloride]

IC50 [1]: 2.35 nM
SMILES: CN1CCCC1(C)c1nc2c3c(sc2c(=O)[nH]1)-c1c[nH]nc1CCC3 (single isomer, unassigned) [Compound 5-2 hydrochloride]

IC50 [1]: 6.73 nM
SMILES: CC1(c2nc3c4c(sc3c(=O)[nH]2)-c2c[nH]nc2CCC4)CCCN1 (single isomer, unassigned) [Compound 4-2 hydrochloride]

IC50 [1]: 1.09 nM
SMILES: CN1CCCC(c2nc3c4c(sc3c(=O)[nH]2)-c2c[nH]nc2CCC4)C1 (single isomer, unassigned) [Compound 9-2 hydrochloride]

IC50 [1]: 1.52 nM
SMILES: O=c1[nH]c(C2CCCN2)nc2c3c(sc12)-c1c[nH]nc1CCC3 (single isomer, unassigned) [Compound 2-2 hydrochloride]

IC50 [1]: 2.7 nM
SMILES: CN1CCCCC1c1nc2c3c(sc2c(=O)[nH]1)-c1c[nH]nc1CCC3 (single isomer, unassigned) [Compound 7-2 formate]

IC50 [1]: 3.73 nM
SMILES: O=c1[nH]c(C2CCCN2)nc2c3c(sc12)-c1c[nH]nc1CCC3 (single isomer, unassigned) [Compound 2-1 hydrochloride]

IC50 [1]: 4.85 nM
SMILES: CN1CCCC(c2nc3c4c(sc3c(=O)[nH]2)-c2c[nH]nc2CCC4)C1 (single isomer, unassigned) [Compound 9-1 hydrochloride]

SMILES: Cc1n[nH]cc1-c1cc2nc([C@@H]3CC4CCN3CC4)[nH]c(=O)c2s1 [TAK-931, reference compound]
Tumor volume (Day 1) ([2]; 40 mg/kg): 134 ± 13 mm^3
RTV (Day 21) ([2]; 40 mg/kg): 1.36
T/C (%) (Day 21) ([2]; 40 mg/kg): 16%
TGI (%) (Day 21) ([2]; 40 mg/kg): 96%
Tumor volume (Day 21) ([2]; 40 mg/kg): 176 ± 27 mm^3

SMILES: CN1CCC(C)(c2nc3c4c(sc3c(=O)[nH]2)-c2c[nH]nc2CCC4)CC1 [Compound 13 hydrochloride]
IC50 [1]: 5.66 nM

IC50 [1]: 1.19 nM
SMILES: CN1CCCC1c1nc2c3c(sc2c(=O)[nH]1)-c1c[nH]nc1CCC3 (single isomer, unassigned) [Compound 3-1 hydrochloride]

IC50 [1]: 4.85 nM
SMILES: CN1CCC(c2nc3c4c(sc3c(=O)[nH]2)-c2c[nH]nc2CCC4)CC1 [Compound 11 hydrochloride]

IC50 [1]: 1.17 nM
SMILES: O=c1[nH]c(C2CCCNC2)nc2c3c(sc12)-c1c[nH]nc1CCC3 (single isomer, unassigned) [Compound 8-2 hydrochloride]

SMILES: O=c1[nH]c([C@H]2CC3CCN2CC3)nc2c3c(sc12)-c1c[nH]nc1CCC3 (single isomer, unassigned) [Compound 1-2 hydrochloride]
IC50 [1]: 1.29 nM
IC50 [4]: 53.6 nM
